We go through 10 molecules from PubChem BioAssay (NCI).

Some test systems named below: A498 renal; A549 NSCLC; CCRF-CEM leukemia; EKVX NSCLC; HCC-2998 colon; K-562 leukemia; LOX IMVI melanoma; MALME-3M melanoma; OVCAR-3 ovarian; SNB-19 CNS.
Common to all, as to assay: growth of human tumour cells (NCI), 48 h

Several values for one entry are separate records, joined by “and”; a condition that tells them apart may be missing. Equal values may be shown once.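 Where inhibition never reached the appropriate level, the endpoint shown equals the highest concentration tested. Otherwise, values were interpolated linearly from a five-concentration, 48-hour dose response in 96-well plates. Here, GI50 denotes the concentration required for 50% inhibition of growth. Definition used: TGI = concentration required for complete inhibition of growth.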 Bounds are passed on as bounds.

In the case of `CC[C@@]1(O)C(=O)OCc2c1cc1n(c2=O)Cc2cc3cc(N)ccc3nc2-1`, the GI50 with A498 renal is 0.0277 µM and 0.0376 µM; with A549 NSCLC, 0.0373 µM and 0.0155 µM; with CCRF-CEM leukemia it was 0.1 µM; with EKVX NSCLC it was 0.304 µM and 0.348 µM; in the experiment with HCC-2998 colon, 0.0707 µM; in the experiment on K-562 leukemia it was 0.0512 µM and 0.043 µM. Moreover, the GI50 in the experiment on LOX IMVI melanoma is 0.0202 µM; in the experiment on MALME-3M melanoma, 0.101 µM and 0.037 µM; in the experiment with OVCAR-3 ovarian, 0.0847 µM and 0.0653 µM; with SNB-19 CNS, 0.0169 µM and < 0.0119 µM. Moreover, the TGI with A498 renal is 0.143 µM and 0.152 µM; in the experiment on A549 NSCLC, 2.24 µM and 1.26 µM; with EKVX NSCLC it was 9.06 µM and 44 µM; in the experiment with HCC-2998 colon it was 0.495 µM and 1.36 µM; in the experiment on LOX IMVI melanoma it was 0.207 µM and 0.0665 µM; in the experiment on MALME-3M melanoma, 1.21 µM and 0.478 µM. In addition, the TGI was 0.608 µM and 0.346 µM in the experiment with OVCAR-3 ovarian; 4.11 µM and > 29.4 µM in the experiment with SNB-19 CNS.
Turning to `Cc1ccc(S(=O)(=O)N=Nc2c(O)[nH]c3c(Cl)cc(Cl)cc23)cc1`, the TGI with A498 renal, in the experiment on A549 NSCLC, in the experiment with CCRF-CEM leukemia, in the experiment on EKVX NSCLC, in the experiment with HCC-2998 colon and in the experiment on K-562 leukemia was > 100 µM each time. The TGI in the experiment on LOX IMVI melanoma, with MALME-3M melanoma, in the experiment on OVCAR-3 ovarian and in the experiment with SNB-19 CNS was > 100 µM each time.
For `CN=C1SC(=Nc2ccc(N(C)C)cc2)N1C`, the TGI in the experiment with A498 renal is 91.9 µM; with A549 NSCLC it was > 100 µM; in the experiment on CCRF-CEM leukemia, > 100 µM; with EKVX NSCLC it was 72.7 µM; in the experiment with HCC-2998 colon it was > 100 µM; in the experiment on K-562 leukemia, > 100 µM. Moreover, the TGI in the experiment with LOX IMVI melanoma, with MALME-3M melanoma, with OVCAR-3 ovarian and with SNB-19 CNS was > 100 µM in each case.
Take `Cn1cc(CNCC2CCN(c3ncc(C(=O)NO)cn3)CC2)c2ccccc21`: the GI50 is 0.0102 µM with A498 renal; 0.0123 µM with A549 NSCLC; < 0.0116 µM with CCRF-CEM leukemia; 0.0255 µM in the experiment with EKVX NSCLC; 0.0141 µM with HCC-2998 colon; < 0.012 µM in the experiment with K-562 leukemia. In addition, the GI50 with LOX IMVI melanoma was 0.0117 µM; in the experiment on MALME-3M melanoma, < 0.01 µM; with OVCAR-3 ovarian, 0.0158 µM; in the experiment on SNB-19 CNS, 0.0251 µM. Besides, the TGI with A498 renal was 0.0274 µM; in the experiment on A549 NSCLC, 0.519 µM; with CCRF-CEM leukemia it was 49.3 µM; in the experiment with EKVX NSCLC, 23.4 µM; in the experiment with HCC-2998 colon it was 0.0837 µM; in the experiment with K-562 leukemia it was > 46.9 µM. Also, the TGI in the experiment on LOX IMVI melanoma was found to be 0.0325 µM; with MALME-3M melanoma, 15.2 µM; in the experiment on OVCAR-3 ovarian, 0.126 µM; in the experiment with SNB-19 CNS, 0.9 µM.
For `CNC(=S)N/N=C/c1ccc([N+](=O)[O-])s1`, the TGI in the experiment on A498 renal, with A549 NSCLC, in the experiment with CCRF-CEM leukemia, in the experiment with EKVX NSCLC, with HCC-2998 colon and in the experiment with K-562 leukemia was > 10 µM throughout. Moreover, the TGI with LOX IMVI melanoma is > 10 µM; in the experiment with MALME-3M melanoma, > 10 µM; in the experiment on OVCAR-3 ovarian, 7.24 µM; with SNB-19 CNS it was > 10 µM.
On to `COc1ccc2c(c1)[n+]([O-])c(/C(C)=N/NC(=O)CC#N)c[n+]2[O-]`, for which the TGI in the experiment with A498 renal, in the experiment with A549 NSCLC, in the experiment on CCRF-CEM leukemia, in the experiment on EKVX NSCLC, in the experiment with HCC-2998 colon and with K-562 leukemia was > 100 µM in each case. Further, the TGI in the experiment with LOX IMVI melanoma, in the experiment on MALME-3M melanoma, with OVCAR-3 ovarian and in the experiment on SNB-19 CNS was > 100 µM throughout.
For `Cc1c(Cl)cccc1NC(=O)CC1C(=O)Nc2ccccc2S1(=O)=O` (configuration not stated), the TGI came out at 28.9 µM in the experiment on A498 renal; 33.2 µM with A549 NSCLC; 47.8 µM in the experiment on CCRF-CEM leukemia; 70 µM with EKVX NSCLC; 33.4 µM in the experiment with HCC-2998 colon; 50.1 µM in the experiment with K-562 leukemia. Besides, the TGI came out at 29.1 µM in the experiment on LOX IMVI melanoma, 42.4 µM with MALME-3M melanoma, 31.7 µM in the experiment on OVCAR-3 ovarian and 52.3 µM in the experiment with SNB-19 CNS.
For the molecule `CC(=O)Nc1ccc(S(=O)(=O)NNC(=O)c2cccnc2Nc2ccc(Cl)cc2)cc1`, the GI50 in the experiment with A498 renal is 18.4 µM; with A549 NSCLC it was 32.4 µM; with CCRF-CEM leukemia, 21.3 µM; in the experiment with EKVX NSCLC it was 48.9 µM; in the experiment on HCC-2998 colon it was 8.38 µM; in the experiment on K-562 leukemia, 8.5 µM. In addition, the GI50 with LOX IMVI melanoma was 24 µM; in the experiment with MALME-3M melanoma, > 100 µM; in the experiment with OVCAR-3 ovarian, 3.73 µM; in the experiment with SNB-19 CNS it was 14.1 µM. For the same molecule, the TGI is 76.1 µM in the experiment on A498 renal; > 100 µM in the experiment on A549 NSCLC; > 100 µM in the experiment on CCRF-CEM leukemia; > 100 µM in the experiment with EKVX NSCLC; > 100 µM in the experiment on K-562 leukemia; > 100 µM in the experiment on LOX IMVI melanoma. The TGI with MALME-3M melanoma, in the experiment on OVCAR-3 ovarian and with SNB-19 CNS was > 100 µM each time.
With `CC(C)(C)NC(=O)[C@H]1C[C@H]2CCCC[C@H]2CN1C[C@@H](O)[C@H](Cc1ccccc1)NC(=O)[C@H](CC(N)=O)NC(=O)c1ccc2ccccc2n1`, the GI50 in the experiment on A498 renal is 15.7 µM; with A549 NSCLC it was 13.2 µM; with CCRF-CEM leukemia, 9.31 µM; in the experiment with EKVX NSCLC it was 3.57 µM; in the experiment on HCC-2998 colon it was 13.4 µM; in the experiment on K-562 leukemia it was 8.51 µM. In addition, the GI50 in the experiment with LOX IMVI melanoma was 14.6 µM; in the experiment on MALME-3M melanoma, 17.7 µM; with OVCAR-3 ovarian, 13.5 µM; with SNB-19 CNS, 7.97 µM. The TGI is 32.1 µM in the experiment with A498 renal; 31 µM in the experiment with A549 NSCLC; 28 µM with CCRF-CEM leukemia; > 59.9 µM with EKVX NSCLC; 26.8 µM in the experiment with HCC-2998 colon; 24.4 µM with K-562 leukemia. In addition, the TGI in the experiment on LOX IMVI melanoma amounted to 32.1 µM; with MALME-3M melanoma it was 37.8 µM; with OVCAR-3 ovarian, 33.5 µM; in the experiment on SNB-19 CNS it was 23 µM.
`COC(=O)C1=C(CS(=O)c2ccccc2[N+](=O)[O-])ON(C)C1c1ccccc1` (configuration not stated): the TGI with A498 renal was > 100 µM; in the experiment on A549 NSCLC, > 100 µM; in the experiment with CCRF-CEM leukemia, 39.3 µM; with EKVX NSCLC, > 100 µM; in the experiment on HCC-2998 colon it was 82.9 µM; in the experiment with K-562 leukemia, 78 µM. Besides, the TGI with LOX IMVI melanoma is 28.9 µM; with MALME-3M melanoma it was > 100 µM; with OVCAR-3 ovarian it was > 100 µM; with SNB-19 CNS it was > 100 µM.
